COC(=O)Nc1nc2ccc(S(=O)c3ccccc3)cc2[nH]1 (configuration not stated)
solubility (mole fraction)
Details	278.15 K	283.15 K	288.15 K	293.15 K	298.15 K	303.15 K	308.15 K	313.15 K	318.15 K	323.15 K
in 2-ethoxyethanol	0.00043	0.000518	0.000583	0.000682	0.00079	0.000908	0.00104	0.00118	0.00132	0.00144
in 2-methoxyethanol	0.000687	0.000777	0.000887	0.00104	0.00118	0.00133	0.0015	0.00173	0.00191	0.00215
in 2-propoxyethanol	0.000338	0.000402	0.000476	0.000554	0.000629	0.000727	0.000802	0.0009	0.00103	0.00117
in DMAc	0.00381	0.00471	0.00576	0.00659	0.00821	0.00976	0.0112	0.0125	0.0147	0.017
in DMF	0.00284	0.00329	0.00363	0.00408	0.00454	0.00502	0.00576	0.00632	0.00718	0.00796
in DMSO	–	–	–	0.00925	0.0109	0.012	0.0138	0.0157	0.0175	0.0194
in diglyme	0.00015	0.000174	0.000203	0.000241	0.00028	0.000321	0.000362	0.000406	0.000454	0.000502
in methanol	8.35e-05	9.72e-05	0.00012	0.000148	0.00017	0.000201	0.000242	0.000287	0.000332	0.000389
